# According to publication PMC3220703, “Effects of DPP-4 Inhibitors on the Heart in a Rat Model of Uremic Cardiomyopathy” (PLoS ONE, 2011):
# Legend:
# 5/6N rats = test: Markers of kidney function before and after drug administration in 5/6N rats; type: in vivo, rat; settings: for effect on concentration of osteopontin: 4 days of treatment vs pre-treatment; for Osteopontin: mean±SEM
# Description: Creatinine concentration was measured by the Jaffe colorimetric method. Creatinine clearance was estimated as described previously.
# For each parameter, the log10-transformed values were analyzed separately using an ANOVA for repeated measurements with factors for experimental group and time as fixed effects. […] These statistical analyses were carried out with the software product SAS (SAS Institute, Cary, NC USA), version 9.2.
# [1] = Pharmacokinetics: plasma AUC(0-∞) in sham-operated and 5/6N rats (HPLC-MS/MS); type: in vivo, rat; settings: day 4, mean±SEM; for AUC(0-inf): rat, plasma, po
# Description: Sham-operated rats were divided into four control groups (N = 5–6 rats per group) in the same manner.
# Chromatography for all assays was achieved on a Phenomenex Luna Phenyl-Hexyl 100A, 3 µm, 50×2 mm analytical HPLC column with gradient elution. The analytes were detected and quantified by HPLC-MS/MS using electrospray ionization in the positive ion mode.
# Pharmacokinetic analysis was performed using non-compartmental methods with ToxKin V 3.5 (LogicaCMG ITS AG, Switzerland). The linear trapezoidal rule was used for AUC calculation. The terminal half-life (t(1/2)) was calculated as t(1/2) = ln2/λ(z) with the terminal elimination rate constant λ(z) as slope of the logarithmic-linear regression line lnC(t) = lnC(0 h) – λ(z) × t of two or three data points in the terminal phase. Extrapolated AUC(rest, tz-∞) was calculated according to Aronson et al, using the calculated concentration and time (t(z)) of the last measurable data point.
# uremic rat heart = test: Quantitative real-time PCR of BNP and fibrosis markers in uremic rat heart; type: in vivo; settings: 7 µmol/kg, 4 days; 5/6N rats; vs untreated 5/6N; in words
# Description: Total RNA was extracted from 50 mg snap-frozen tissue by homogenization in peqGold Trifast reagent (Peqlab). Residual genomic DNA was removed with Turbo DNAse (Applied Biosystems). The RNA concentration and purity were assayed by spectrophotometry. First-strand cDNA synthesis was performed with random hexamer primer and 1 µg RNA using High Capacity cDNA Reverse Transcription Kit (Applied Biosystems) according to the manufacturer's instruction. (For further detail see Vinon-Zellweger et al.)
# Sequences from the Ensemble database and the online available Primer3 software were used to create specific, intron-spanning primers for the target genes. […] Synthesized primers were obtained from Sigma-Aldrich®.
# A total of 10 ng cDNA in 5 µl was normally used as template for amplification. An additional 0.5 µl of each primer (5 pmol) and 12.5 µl of Power SYBR Green PCR Master Mix (Applied Biosystems) were added and diluted with water to a volume of 25 µl. The PCR was performed on an Mx3000P thermal cycler (Stratagene). Reaction conditions were 95°C for 10 min, 40 cycles at 95°C for 15 sec, and 60°C for 60 sec, followed by an examination of the melting curve. All samples were analyzed in triplicate. The amplification efficiency of every reaction was checked with the linear regression method. Expression of the gene of interest was divided by the housekeeping gene, glyceraldehyde-3-phosphate dehydrogenase, and expressed as fold-change compared with the corresponding sham-operated rats group.
# active GLP-1 = test: Plasma active GLP-1 levels after linagliptin; type: in vivo, rat
# Description: Figure 5 Active GLP-1 levels in uremic vs sham animals. […] Following the last dose, plasma was taken after the time points indicated and active GLP-1 was detected. Values are given as mean ± SEM. N = 5 sham-operated, and 8-12 rats for 5/6N.
# Active (uncleaved, 7–36 amide or 7–37) GLP-1 was detected using the commercially available Multi-Array Assay System (K150JWC) from Meso Scale Discovery following the instructions of the supplier.
# [2] = cited from earlier work; for main elimination route: in words
# [3] = after (4 days + 72 h) administration, 7.0 µmol/kg
# [4] = vs pre-treatment values, in words
# [5] = 7 umol/kg, 5/6N rats, 7 µmol/kg oral once daily
# [6] = 7 umol/kg, sham-operated rats, 7 µmol/kg oral once daily
# [7] = before drug administration, 7.0 µmol/kg group
smiles,measurement,setting,value
"Cn1c(=O)cc(N2CCC[C@@H](N)C2)n(Cc2ccccc2C#N)c1=O [Alogliptin, alogliptin]",effect on concentration of osteopontin,"5/6N rats; 7.0 µmol/kg, in words",significantly reduced
same,Osteopontin,5/6N rats; [3],39.1 ± 8.8 ng/mL
same,change of cystatin C following 4 days of treatment,5/6N rats; [4],significantly increased
same,AUC(0-inf),[1]; [5],2.44 ± 0.167 µM·h
same,AUC(0-inf),[1]; [6],1.77 ± 0.226 µM·h
"CC#CCn1c(N2CCC[C@@H](N)C2)nc2c1c(=O)n(Cc1nc(C)c3ccccc3n1)c(=O)n2C [Linagliptin, linagliptin]",mRNA expression of BNP in uremic rat heart,uremic rat heart,significantly reduced
same,mRNA expression of Col1α1 in uremic rat heart,uremic rat heart,significantly inhibited
same,mRNA expression of Col3α1 in uremic rat heart,uremic rat heart,significantly inhibited
same,mRNA expression of TGF-β1 in uremic rat heart,uremic rat heart,significantly inhibited
same,mRNA expression of TIMP-1 in uremic rat heart,uremic rat heart,significantly inhibited
same,GLP-1 AUC,"active GLP-1; 7 μmol/kg, 5/6N",201 ng·h/L
same,GLP-1 AUC,"active GLP-1; 7 μmol/kg, sham",108 ng·h/L
same,GLP-1 AUC,"active GLP-1; 5/6N rats, linagliptin 7 µmol/kg daily for 4 days",201.0 ng·h/L
same,increase in GLP-1 in 5/6N rats compared with sham-treated rats,"active GLP-1; linagliptin 7 µmol/kg, p = 0.01",2 fold
same,GLP-1 AUC,"active GLP-1; sham rats, linagliptin 7 µmol/kg daily for 4 days",108.6 ng·h/L
same,effect on concentration of osteopontin,"5/6N rats; 0.5 µmol/kg, p<0.001, in words",significantly reduced
same,effect on concentration of osteopontin,"5/6N rats; 7.0 µmol/kg, in words",did not reach statistical significance
same,Osteopontin,"5/6N rats; after (4 days + 72 h) administration, 0.5 µmol/kg",48.1 ± 3.8 ng/mL
same,Osteopontin,5/6N rats; [3],49.4 ± 10.7 ng/mL
same,Osteopontin,"5/6N rats; before drug administration, 0.5 µmol/kg group",70.9 ± 4.7 ng/mL
same,Osteopontin,5/6N rats; [7],54.2 ± 10.0 ng/mL
same,change of cystatin C following 4 days of treatment,5/6N rats; [4],trend toward decreasing
same,eliminated via the urine,[2]; oral,1–5%
same,"elimination via the bile, share of the orally administered dose",[2]; oral,approximately 85%
same,AUC(0-∞),"[1]; 5/6N rats, 7 µmol/kg oral once daily",748.2 ± 74.52 nmol·h/L
same,AUC(0-inf),"[1]; 0.5 umol/kg, 5/6N rats, 0.5 µmol/kg oral once daily",0.258 ± 0.0214 µM·h
same,AUC(0-inf),"[1]; 0.5 umol/kg, sham-operated rats, 0.5 µmol/kg oral once daily",0.267 ± 0.0289 µM·h
same,AUC(0-inf),[1]; [5],1.25 ± 0.373 µM·h
same,AUC(0-inf),[1]; [6],0.748 ± 0.0745 µM·h
same,AUC(0-∞),"[1]; sham-operated rats, 7 µmol/kg oral once daily",1252 ± 378.8 nmol·h/L
"N[C@@H](CC(=O)N1CCn2c(nnc2C(F)(F)F)C1)Cc1cc(F)c(F)cc1F [Sitagliptin, sitagliptin]",effect on concentration of osteopontin,"5/6N rats; 7.0 µmol/kg, in words",significantly reduced
same,Osteopontin,5/6N rats; [3],33.4 ± 2.4 ng/mL
same,Osteopontin,5/6N rats; [7],48.5 ± 4.4 ng/mL
same,change of cystatin C following 4 days of treatment,5/6N rats; [4],unchanged
same,change of β2-microglobulin concentration following 4 days of treatment,5/6N rats; [4],increasing the concentration of β2-microglobulin
same,main elimination route,[2],via the kidney
same,AUC(0-inf),[1]; [5],6.24 ± 0.423 µM·h
same,AUC(0-inf),[1]; [6],3.69 ± 0.103 µM·h
N#C[C@@H]1CCCN1C(=O)CNC12CC3CC(CC(O)(C3)C1)C2 [vildagliptin],main elimination route,[2],via the kidney
